Data on 4 compounds can be found in patent US20010011081A1, “Pharmaceutical composition comprising L- carnitine or alkanoyl L-carnitine for the prevention and treatment of diseases brought about by lipid metabolism disorders” (Sigma-Tau Industrie Parmaceutiche Riunite S.p.A., priority 1995, published 2001).

The subject of assay [1] is experimentally obese rats. As to the kind of experiment: Tests in experimentally obese rats on a lipogenic diet for fifteen days (food consumption, body weight, serum triglycerides, epididymal fat). Particulars: for MEAN DAILY FOOD CONSUMPTION (g) PER ANIMAL After 15 days / MEAN DAILY FOOD CONSUMPTION (g) PER ANIMAL Before treatment / Final body weight increase (g) AFTER 15 DAY-TREATMENT / SERUM Triglycerides AFTER 15 DAY-TREATMENT / Epididimal fat AFTER 15 DAY-TREATMENT: lipogenic diet. Format: in vivo, Wistar rats. The protocol:
Male Wistar rats aged about 2 months were fed on a lipogenic diet (50% glucose, 20% casein, 4% cellulose, 5% salt mixture, 1% hazel nut oil, 18% starch, 1% vitamin mixture).
This diet was administered for fifteen days consecutively to different groups of rats, one of which served as a control group, whereas in the other groups the diet was administered together with calcium hydroxycitrate (1%-2%) or Garcinia cambogia extract (2%-4%) or L-carnitine (2%-4%) or acetyl L-carnitine or propionyl L-carnitine at the same doses, or together with various combinations of these products at the same doses. At the end of the fifteenth day of treatment, food consumption was evaluated in treated rats vs. controls and increases in body weight and in serum triglycerides and epididymal fat were measured.

The subject of assay [2] is Wistar rats with hypercholesterolaemia induced by diet. Put plainly: Experimental hypercholesterolaemia test (diet-induced, six weeks). Format: in vivo. Particulars: serum. As for the experimental part: The results of tests conducted in Wistar rats with hypercholesterolaemia induced by diet according to the method described by C. […] Treatment both with L-carnitine and with calcium hydroxycitrate or with Garcinia cambogia extract, or with a combination of these products, was initiated together with a hypercholesterolaemia-inducing diet and continued for six weeks consecutively. At the end of this period, the assay was performed on the serum of the control animals and on that of the treated animals according to the method described by P. Roschlan (Clin. Chem. Clin. Biochem. 12, 403, 1975).

Assay [3] deals with fructose-induced hypertriglyceridaemia. Put plainly: Experimental hypertriglyceridaemia test (oral fructose). Format: in vivo, Wistar rats. Particulars: for EXPERIMENTALLY-INDUCED HYPERTRIGYCERIDAEMIA (serum triglycerides): 5 days before and two hours after 3 g fructose. As for the experimental part: In these tests, male Wistar rats serum triglyceride elevation was induced experimentally by means of the oral administration of fructose according to the method disclosed by L. A. V. Carlson (J. Atheroscler. Res. 8, 667, 1968; Atherosclerosis 16, 349, 1972). In the 5-day period prior to administration of 3 g of fructose, the rats, divided into groups, were treated with L-carnitine or its derivatives or with calcium hydroxycitrate or Garcinia cambogia extract at different doses, or with various combinations of these products.
The administration of these products was then repeated two hours after administration of fructose, and 5 hours later all animals were sacrificed. Triglyceride assay was then performed according to the method of R. K. Donabedian (Clin. Chem 20, 632, 1974).

For assay [4], the system named is atherosclerotic vascular lesions. As to the kind of experiment: Experimental atherosclerosis test (atherogenic diet for six weeks). Format: in vivo, Wistar rats. An excerpt:
Also in atherosclerotic vascular lesions induced experimenatlly according to the method of M. R. Malinow (Atherosclerosis 48, 105, 1983), with administration of an atherogenic diet (24% casein, 10% cotton oil, 5% salt, 60% sugar, 1% cholesterol, Vit D2 200 mUST/g of diet) for six weeks consecutively to different groups of male Wistar rats, it has been shown that the combination of carnitines plus calcium hydroxycitrate or Garcinia cambogia extract is capable of substantially potentiating the anti-atherogenic effect.
This was assessed by measuring the thickness of the abdominal aorta and the intensity of staining induced by Sudan IV using a scoring system from 1 to 5, according to degree of severity.

Where [5] appears, read: fifteen days of treatment on a lipogenic diet.
[6] abbreviates: g 1/100 g diet, listed as calcium hydroxycitrate.
Where [7] appears, read: g 2/100 g diet, listed as calcium hydroxycitrate.

“Also recorded” adds a separate entry of the source.

For `CC(=O)O[C@H](CC(=O)[O-])C[N+](C)(C)C` [Acetyl L-carnitine], the entries for the “MEAN DAILY FOOD CONSUMPTION (g) PER ANIMAL After 15 days” value in assay [1] (g 2/100 g diet) and in assay [1] (g 4/100 g diet) were 18.4 ± 0.44 g and 18.8 ± 0.57 g, respectively. Moreover, the “MEAN DAILY FOOD CONSUMPTION (g) PER ANIMAL Before treatment” value in assay [1] (g 2/100 g diet) turned out to be 18.6 ± 0.39 g; in assay [1] (g 4/100 g diet) it was 18.2 ± 0.41 g. The “change in daily food consumption (in words)” value (“change” below) in assay [1] (setting [5]) is “No changes compared to controls; also recorded: non-significant changes”. In addition, the “Final body weight increase (g) AFTER 15 DAY-TREATMENT” value (from here on “Final body weight increase”) in assay [1] (g 2/100 g diet) is listed as 60.4 ± 7.1 g; in assay [1] (g 4/100 g diet) it was 60.1 ± 6.1 g. The “SERUM Triglycerides AFTER 15 DAY-TREATMENT” value was 95.81 ± 8.2 mg/100 ml in assay [1] (g 2/100 g diet) and 90.8 ± 7.5 mg/100 ml in assay [1] (g 4/100 g diet). Further, the “EXPERIMENTALLY-INDUCED HYPERCHOLESTEROLEMIA, TOTAL CHOLESTEROL” value in assay [2] (g 2/100 g diet) was 266.7 ± 7.7 mg/dL; in assay [2] (g 4/100 g diet), 255.4 ± 9.4 mg/dL. Besides, the figures for the “EXPERIMENTALLY-INDUCED HYPERTRIGYCERIDAEMIA (serum triglycerides)” value in assay [3] (g 0.5/Kg) and in assay [3] (g 1/Kg) were 191.2 ± 9.1 mg/100 ml and 188.4 ± 5.5 mg/100 ml, respectively.

In the case of `C[N+](C)(C)C[C@H](O)CC(=O)[O-]` [L-carnitine], the “severity of atherosclerotic lesions / anti-atherogenic effect (abdominal aorta thickness, Sudan IV staining score 1 to 5)” value in assay [4] is reported as “capable of reducing the severity of the atherosclerotic lesions”. Also, in assay [1] (g 4/100 g diet), the “MEAN DAILY FOOD CONSUMPTION (g) PER ANIMAL After 15 days” value turned out to be 17.8 ± 0.41 g, the “MEAN DAILY FOOD CONSUMPTION (g) PER ANIMAL Before treatment” value is 18.4 ± 0.61 g, the “Final body weight increase” value worked out at 64.5 ± 5.1 g and the “SERUM Triglycerides AFTER 15 DAY-TREATMENT” value is recorded as 90.44 ± 6.8 mg/100 ml. In addition, in assay [1] (g 2/100 g diet), the “MEAN DAILY FOOD CONSUMPTION (g) PER ANIMAL Before treatment” value was 17.3 ± 0.35 g, the “Final body weight increase” value is listed as 66.2 ± 4.9 g and the “SERUM Triglycerides AFTER 15 DAY-TREATMENT” value is listed as 92.55 ± 7.7 mg/100 ml. In assay [1] (setting [5]), the “change” value was “No changes compared to controls; also recorded: non-significant changes”. Moreover, the “EXPERIMENTALLY-INDUCED HYPERCHOLESTEROLEMIA, TOTAL CHOLESTEROL” value in assay [2] (g 2/100 g diet) was determined as 270.4 ± 5.1 mg/dL. Besides, the “EXPERIMENTALLY-INDUCED HYPERCHOLESTEROLEMIA, TOTAL CHOLESTEROL” value in assay [2] (g 4/100 g diet) came to 260.6 ± 4.4 mg/dL. Moreover, in assay [3] (g 0.5/Kg), the “EXPERIMENTALLY-INDUCED HYPERTRIGYCERIDAEMIA (serum triglycerides)” value is on record as 190.4 ± 9.6 mg/100 ml. Also, the “EXPERIMENTALLY-INDUCED HYPERTRIGYCERIDAEMIA (serum triglycerides)” value in assay [3] (g 1/Kg) is recorded as 190.8 ± 8.6 mg/100 ml.

In the case of `CCC(=O)O[C@H](CC(=O)[O-])C[N+](C)(C)C` [Propionyl L-carnitine], in assay [1] (g 2/100 g diet), the “MEAN DAILY FOOD CONSUMPTION (g) PER ANIMAL After 15 days” value is given as 17.1 ± 0.38 g, the “MEAN DAILY FOOD CONSUMPTION (g) PER ANIMAL Before treatment” value is reported as 17.7 ± 0.56 g, the “Final body weight increase” value is 62.4 ± 3.9 g and the “SERUM Triglycerides AFTER 15 DAY-TREATMENT” value was 88.4 ± 8.16 mg/100 ml. In assay [1] (g 4/100 g diet), the “MEAN DAILY FOOD CONSUMPTION (g) PER ANIMAL After 15 days” value was determined as 18.5 ± 0.48 g, the “MEAN DAILY FOOD CONSUMPTION (g) PER ANIMAL Before treatment” value was determined as 18.2 ± 0.44 g, the “Epididimal fat AFTER 15 DAY-TREATMENT” value is reported as 4.0 ± 5.6 g and the “Final body weight increase” value is given as 58.7 ± 3.7 g. Besides, the “SERUM Triglycerides AFTER 15 DAY-TREATMENT” value in assay [1] (g 4/100 g diet) is 82.7 ± 6.6 mg/100 ml. For the same compound, the “change” value in assay [1] (setting [5]) is “No changes compared to controls; also recorded: non-significant changes”. Besides, in assay [2] (g 2/100 g diet), the “EXPERIMENTALLY-INDUCED HYPERCHOLESTEROLEMIA, TOTAL CHOLESTEROL” value was determined as 250.6 ± 10.1 mg/dL. The “EXPERIMENTALLY-INDUCED HYPERCHOLESTEROLEMIA, TOTAL CHOLESTEROL” value in assay [2] (g 4/100 g diet) is 235.3 ± 9.6 mg/dL. The “EXPERIMENTALLY-INDUCED HYPERTRIGYCERIDAEMIA (serum triglycerides)” value in assay [3] (g 0.5/Kg) was determined as 184.2 ± 6.8 mg/100 ml. For the same compound, in assay [3] (g 1/Kg), the “EXPERIMENTALLY-INDUCED HYPERTRIGYCERIDAEMIA (serum triglycerides)” value is recorded as 180.4 ± 7.9 mg/100 ml.

With Calcium hydroxycitrate, the “severity of atherosclerotic lesions / anti-atherogenic effect (abdominal aorta thickness, Sudan IV staining score 1 to 5)” value in assay [4] is listed as “capable of reducing the severity of the atherosclerotic lesions”. In addition, in assay [1] (g 1/100 g diet), the “MEAN DAILY FOOD CONSUMPTION (g) PER ANIMAL After 15 days” value worked out at 17.1 ± 0.35 g, the “MEAN DAILY FOOD CONSUMPTION (g) PER ANIMAL Before treatment” value is 19.2 ± 0.65 g, the “Epididimal fat AFTER 15 DAY-TREATMENT” value is recorded as 3.91 ± 0.36 g and the “Final body weight increase” value is reported as 46.6 ± 4.1 g. For the same compound, the “SERUM Triglycerides AFTER 15 DAY-TREATMENT” value in assay [1] (g 1/100 g diet) is given as 76.84 ± 6.9 mg/100 ml. Further, in assay [1] (setting [6]), the “MEAN DAILY FOOD CONSUMPTION (g) PER ANIMAL After 15 days” value turned out to be 17.1 g and the “MEAN DAILY FOOD CONSUMPTION (g) PER ANIMAL Before treatment” value is reported as 19.2 g. Moreover, in assay [1] (g 2/100 g diet), the “MEAN DAILY FOOD CONSUMPTION (g) PER ANIMAL After 15 days” value was determined as 15.1 ± 0.46 g, the “MEAN DAILY FOOD CONSUMPTION (g) PER ANIMAL Before treatment” value is given as 18.8 ± 0.44 g, the “Epididimal fat AFTER 15 DAY-TREATMENT” value is given as 3.32 ± 0.39 g and the “Final body weight increase” value is 38.9 ± 3.8 g. In addition, in assay [1] (g 2/100 g diet), the “SERUM Triglycerides AFTER 15 DAY-TREATMENT” value was 73.66 ± 7.1 mg/100 ml. In assay [1] (setting [7]), the “MEAN DAILY FOOD CONSUMPTION (g) PER ANIMAL After 15 days” value is reported as 15.1 g and the “MEAN DAILY FOOD CONSUMPTION (g) PER ANIMAL Before treatment” value turned out to be 18.8 g. Further, in assay [1] (setting [5]), the “body weight gain (in words)” value was “reduced” and the “change” value was “substantial reduction”. Besides, in assay [2] (g 1/100 g diet), the “EXPERIMENTALLY-INDUCED HYPERCHOLESTEROLEMIA, TOTAL CHOLESTEROL” value came out at 196.6 ± 9.6 mg/dL. Further, in assay [2] (g 2/100 g diet), the “EXPERIMENTALLY-INDUCED HYPERCHOLESTEROLEMIA, TOTAL CHOLESTEROL” value was 180.5 ± 8.1 mg/dL. In addition, in assay [2], the “total cholesterol values (in words)” value is on record as “fair degree of lowering”. Moreover, the “EXPERIMENTALLY-INDUCED HYPERTRIGYCERIDAEMIA (serum triglycerides)” value in assay [3] (g 0.5/Kg) worked out at 170.6 ± 8.5 mg/100 ml. Also, the “EXPERIMENTALLY-INDUCED HYPERTRIGYCERIDAEMIA (serum triglycerides)” value in assay [3] (g 1/Kg) was determined as 145.5 ± 8.5 mg/100 ml. For the same compound, the “fructose-induced hypertriglyceridaemia (in words)” value in assay [3] (rat, in vivo) is reported as “reduced”.
